System: ulcerative colitis (UC) rats
Type: in vivo
Conditions: sulfasalazine 100 mg/kg P.O., loaded ZnONPs 100 mg/kg P.O. containing 12.2 mg sulfasalazine/kg
Experimental: Forty male albino rats were randomly divided into four groups (n=10 rats), with all groups were treated for 7 days, as follows:
Group 1: Rats received saline daily for 21 consecutive days by rectal catheter and served as the normal control group (negative control).
Group 2: The disease group received 1 ml acetic acid 3% for three days and served as the ulcerative colitis (UC) control group (positive control).
Group 3: In the standard group, rats received free sulfasalazine (100 mg/kg; P.O. i.e., about 20 mg/rat 200 g) after induction of UC by acetic acid 3% as in group 2.
Group 4: The treatment group, where UC rats received the dose of ZnONPs loaded sulfasalazine (100 mg/kg; P.O. of the ZnONPs) containing 12.2 mg sulfasalazine/kg; P.O.
Markers estimated: • Macroscopic examination of colonic mucosa. • Inflammatory mediators such as tumor necrosis factor-α (TNF-α), interleukin 1beta (IL 1B), malondialdehyde (MBA), reduced glutathione (GSH), superoxide dismutase (SOD), caspase-1, and cyclooxygenase-2 (COX2). • Inflammatory mediators are estimated by ELIZA.

SMILES: O=C(O)c1cc(/N=N/c2ccc(S(=O)(=O)Nc3ccccn3)cc2)ccc1O [sulfasalazine]
- overall effect on ulcerative colitis (inflammatory mediators, healing) relative to other treatments: lower than that observed for Group 4
